Measurements taken from ChEMBL document CHEMBL4385605, “Synthesis and Structure-Affinity Relationships of Spirocyclic Benzopyrans with Exocyclic Amino Moiety” (J Med Chem, 2019).
Calls of active or inactive are those of the source. No cut-off for these calls is given here.

Tests used:
[1] = target: Sigma non-opioid intracellular receptor 1 (Cavia porcellus, UniProt Q60492); experiment: Displacement of [3H](+)-pentazocine from sigma 1 receptor in guinea pig brain cortex membranes after 120 mins by scintillation counting analysis; type: cell membranes
Sequence of Sigma non-opioid intracellular receptor 1 (Q60492 whole entry): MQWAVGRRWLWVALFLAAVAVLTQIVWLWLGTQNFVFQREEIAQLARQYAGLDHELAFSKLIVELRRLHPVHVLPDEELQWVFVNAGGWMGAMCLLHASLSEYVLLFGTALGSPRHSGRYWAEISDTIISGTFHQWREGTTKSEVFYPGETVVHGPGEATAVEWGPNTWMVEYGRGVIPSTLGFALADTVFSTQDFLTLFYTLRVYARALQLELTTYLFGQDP

[2] = target: Sigma non-opioid intracellular receptor 1 (Rattus norvegicus) (UniProt Q9R0C9); experiment: Agonist activity at sigma 1 receptor in rat PC12 cells assessed as effect on KCl-induced intracellular calcium flux by fura-2-AM dye based fluorescence assay; type: cell-based
Sequence of Sigma non-opioid intracellular receptor 1 (Rattus norvegicus) (Q9R0C9 whole entry): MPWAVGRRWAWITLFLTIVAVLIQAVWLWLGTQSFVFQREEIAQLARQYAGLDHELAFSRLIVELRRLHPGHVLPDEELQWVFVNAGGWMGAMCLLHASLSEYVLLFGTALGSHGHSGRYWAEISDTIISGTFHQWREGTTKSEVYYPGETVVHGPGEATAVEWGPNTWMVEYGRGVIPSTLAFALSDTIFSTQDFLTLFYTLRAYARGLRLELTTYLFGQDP

Mu-type opioid receptor = Mu-type opioid receptor (Cavia porcellus, UniProt P97266); experiment: Displacement of [3H]DAMGO from mu opioid receptor in guinea pig brain membranes after 120 mins by scintillation counting analysis; type: cell membranes
Sequence of Mu-type opioid receptor (P97266 whole entry): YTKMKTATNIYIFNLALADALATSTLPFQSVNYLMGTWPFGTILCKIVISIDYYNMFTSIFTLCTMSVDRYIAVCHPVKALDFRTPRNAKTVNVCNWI

Sus scrofa = organism: Sus scrofa; experiment: Displacement of [3H]-(+)-MK-801 from PCP binding site of NMDA receptor in pig brain cortex membranes up to 1 uM after 120 mins by scintillation counting analysis; type: cell membranes
Cytochrome P450 2C9 = Cytochrome P450 2C9 (Homo sapiens, UniProt P11712); experiment: Inhibition of recombinant human CYP2C9 at 1 uM by fluorescence assay; type: ADME; settings: recombinant enzyme
Sequence of Cytochrome P450 2C9 (P11712 whole entry): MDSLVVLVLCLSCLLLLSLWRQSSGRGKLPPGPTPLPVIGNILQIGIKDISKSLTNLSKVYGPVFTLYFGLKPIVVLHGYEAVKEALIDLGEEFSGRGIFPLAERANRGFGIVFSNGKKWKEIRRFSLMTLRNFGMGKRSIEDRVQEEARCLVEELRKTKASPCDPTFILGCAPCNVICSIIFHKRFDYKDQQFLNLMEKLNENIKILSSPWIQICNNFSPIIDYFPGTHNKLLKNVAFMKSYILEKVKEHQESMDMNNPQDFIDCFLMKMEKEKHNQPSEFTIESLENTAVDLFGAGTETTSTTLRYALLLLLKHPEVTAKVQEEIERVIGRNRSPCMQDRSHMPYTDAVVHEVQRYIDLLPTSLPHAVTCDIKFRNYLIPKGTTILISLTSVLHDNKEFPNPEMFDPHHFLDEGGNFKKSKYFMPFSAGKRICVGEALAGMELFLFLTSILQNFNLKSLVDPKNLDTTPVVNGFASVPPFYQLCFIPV

[3] = target: Sodium-dependent noradrenaline transporter (Homo sapiens) (UniProt P23975); experiment: Binding affinity to noradrenaline transporter (unknown origin) at 1 uM
Sequence of Sodium-dependent noradrenaline transporter (Homo sapiens) (P23975 whole entry): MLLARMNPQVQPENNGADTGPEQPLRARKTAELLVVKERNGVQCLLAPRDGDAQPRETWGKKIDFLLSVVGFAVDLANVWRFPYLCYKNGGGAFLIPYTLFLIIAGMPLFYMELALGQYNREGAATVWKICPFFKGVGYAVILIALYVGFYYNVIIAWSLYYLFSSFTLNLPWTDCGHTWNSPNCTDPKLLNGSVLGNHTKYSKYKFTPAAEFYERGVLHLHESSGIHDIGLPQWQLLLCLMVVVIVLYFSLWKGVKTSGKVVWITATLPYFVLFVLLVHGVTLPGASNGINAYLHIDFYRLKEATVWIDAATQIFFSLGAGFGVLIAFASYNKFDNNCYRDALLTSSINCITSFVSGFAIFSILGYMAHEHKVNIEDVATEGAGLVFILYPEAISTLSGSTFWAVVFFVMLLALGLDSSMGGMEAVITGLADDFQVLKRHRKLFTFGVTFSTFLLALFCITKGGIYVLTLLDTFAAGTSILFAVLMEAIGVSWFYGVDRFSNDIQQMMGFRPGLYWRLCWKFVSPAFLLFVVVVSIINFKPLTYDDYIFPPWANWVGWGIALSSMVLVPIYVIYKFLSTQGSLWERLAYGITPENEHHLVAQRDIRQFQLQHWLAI

[4] = target: T1, Alpha-1A adrenergic receptor (Homo sapiens) (UniProt P35348); experiment: Binding affinity to alpha 1a adrenergic receptor (unknown origin) at 1 uM relative to control
T1 sequence (whole entry): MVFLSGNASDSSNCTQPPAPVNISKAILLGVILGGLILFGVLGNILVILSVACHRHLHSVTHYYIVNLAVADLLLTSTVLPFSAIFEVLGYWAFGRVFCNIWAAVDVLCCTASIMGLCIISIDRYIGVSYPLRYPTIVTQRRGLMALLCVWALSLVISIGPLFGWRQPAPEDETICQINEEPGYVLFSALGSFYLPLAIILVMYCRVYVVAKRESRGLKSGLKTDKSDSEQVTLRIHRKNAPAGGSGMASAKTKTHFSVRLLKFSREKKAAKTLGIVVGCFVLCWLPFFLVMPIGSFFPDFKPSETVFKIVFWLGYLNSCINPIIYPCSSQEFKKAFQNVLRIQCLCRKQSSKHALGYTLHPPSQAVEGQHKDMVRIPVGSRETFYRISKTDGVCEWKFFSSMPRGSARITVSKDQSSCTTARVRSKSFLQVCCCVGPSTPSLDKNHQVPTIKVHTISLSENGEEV

`COC1Cc2ccccc2[C@]2(CC[C@H](N(C)CC3CCCCC3)CC2)O1` (some centres not stated) was tested, and the Ki [1] was 1.9 nM, the Activity [2] was “inactive” and the Ki (Mu-type opioid receptor) was 391 nM. The Activity (Sus scrofa) was “inactive”, the “inhibition (INH)” value (Cytochrome P450 2C9) was “Not Active” and the Activity [3] was “inactive”. For the same molecule, the Activity [4] was 68%.
